Measured values from patent US9440957B2, “Compounds and compositions for modulating EGFR Activity” (Novartis AG, priority 2012, dated 2016).
Where two headings read alike, the source gives them in different places.

Columns and labels:
EGFR(L858R/T790M) = target: T1, EGFR(L858R/T790M) (Homo sapiens, UniProt P00533, L858R/T790M); assay: EGFR biochemical assay (HTRF), IC50 determinations
T1 construct: purchased from Carna (GST-a.a. 669-1210)
Outline: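 Two formats were run: compound preincubated at room temperature with enzyme and biotin-TK peptide before ATP starts the reaction, or no preincubation with enzyme added last. Reactions ran 60 min at room temperature and were stopped with EDTA. Phosphopeptide was read by HTRF (PT66K/SAXL, 1 h).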

[1] = target: human EGFR WT (NIH/3T3 cells, EGF-induced) (Homo sapiens, UniProt P00533); assay: EGFR target modulation in engineered NIH/3T3 cell lines (phospho-EGFR Y1068 AlphaLISA), EGFR WT; format: cell-based; conditions: engineered NIH/3T3 cells, read-out: NIH3T3 IC50 (μM) EGFR (WT)
Outline: (§1)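 Engineered NIH/3T3 cells expressing EGFR variants treated 3 h at 37 °C with 12-point 1:3 compound series (top stock 10 μM); only WT cells stimulated with 50 ng/ml EGF for 5 min before lysis. Phospho-Y1068 measured by AlphaLISA with total-EGFR antibody; IC50 from non-linear fitting.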

[2] = target: human EGFR L858R (NIH/3T3 cells) (Homo sapiens, UniProt P00533, L858R); assay: EGFR target modulation in engineered NIH/3T3 cell lines (phospho-EGFR Y1068 AlphaLISA), EGFR L858R; format: cell-based; conditions: engineered NIH/3T3 cells, read-out: NIH3T3 IC50 (μM) EGFR (L858R)
Outline: as §1

[3] = target: human EGFR L858R/T790M (NIH/3T3 cells) (Homo sapiens, UniProt P00533, L858R/T790M); assay: EGFR target modulation in engineered NIH/3T3 cell lines (phospho-EGFR Y1068 AlphaLISA), EGFR L858R/T790M; format: cell-based; conditions: engineered NIH/3T3 cells, read-out: NIH3T3 IC50 (μM) EGFR (L858R/T790M)
Outline: as §1

H1975 (EGFR L858/T790M) = H1975 (EGFR L858/T790M) (Homo sapiens, UniProt P00533, L858R/T790M); assay: EGFR target modulation in H1975 cell line (phospho-EGFR Y1173 ELISA); format: cell-based
Outline: (§2)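 3 h compound exposure of cells in 10% FBS/RPMI, 37 °C; lysis on ice 20 min; lysate captured overnight at 4 °C on anti-EGFR-coated plates; anti-rabbit-HRP, chemiluminescence.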

H3255 (EGFR L858R) = H3255 (EGFR L858R) (Homo sapiens, UniProt P00533, L858R); assay: EGFR target modulation in H3255 cell line (phospho-EGFR Y1173 ELISA); format: cell-based
Outline: as §2

HEKn (EGFR WT) = HEKn (EGFR WT) (Homo sapiens, UniProt P00533); assay: EGFR target modulation in HEKn (EGFR-WT) cell line (phospho-EGFR Y1173 ELISA); format: cell-based; conditions: value outside parentheses
Outline: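 Read-out was Y1173 phosphorylation, measured by chemiluminescent ELISA with anti-EGFR capture of lysates. HEKn keratinocytes (wild-type EGFR) were treated with compound for 3 h.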

[4] = EGFR (L858R/T790M) with 90 min pre-incubation, read-out: IC50 (μM) Column B
[5] = EGFR (L858R/T790M) with no pre-incubation, read-out: IC50 (μM) Column A

Sequence of HEKn (EGFR WT) (P00533 25-1210): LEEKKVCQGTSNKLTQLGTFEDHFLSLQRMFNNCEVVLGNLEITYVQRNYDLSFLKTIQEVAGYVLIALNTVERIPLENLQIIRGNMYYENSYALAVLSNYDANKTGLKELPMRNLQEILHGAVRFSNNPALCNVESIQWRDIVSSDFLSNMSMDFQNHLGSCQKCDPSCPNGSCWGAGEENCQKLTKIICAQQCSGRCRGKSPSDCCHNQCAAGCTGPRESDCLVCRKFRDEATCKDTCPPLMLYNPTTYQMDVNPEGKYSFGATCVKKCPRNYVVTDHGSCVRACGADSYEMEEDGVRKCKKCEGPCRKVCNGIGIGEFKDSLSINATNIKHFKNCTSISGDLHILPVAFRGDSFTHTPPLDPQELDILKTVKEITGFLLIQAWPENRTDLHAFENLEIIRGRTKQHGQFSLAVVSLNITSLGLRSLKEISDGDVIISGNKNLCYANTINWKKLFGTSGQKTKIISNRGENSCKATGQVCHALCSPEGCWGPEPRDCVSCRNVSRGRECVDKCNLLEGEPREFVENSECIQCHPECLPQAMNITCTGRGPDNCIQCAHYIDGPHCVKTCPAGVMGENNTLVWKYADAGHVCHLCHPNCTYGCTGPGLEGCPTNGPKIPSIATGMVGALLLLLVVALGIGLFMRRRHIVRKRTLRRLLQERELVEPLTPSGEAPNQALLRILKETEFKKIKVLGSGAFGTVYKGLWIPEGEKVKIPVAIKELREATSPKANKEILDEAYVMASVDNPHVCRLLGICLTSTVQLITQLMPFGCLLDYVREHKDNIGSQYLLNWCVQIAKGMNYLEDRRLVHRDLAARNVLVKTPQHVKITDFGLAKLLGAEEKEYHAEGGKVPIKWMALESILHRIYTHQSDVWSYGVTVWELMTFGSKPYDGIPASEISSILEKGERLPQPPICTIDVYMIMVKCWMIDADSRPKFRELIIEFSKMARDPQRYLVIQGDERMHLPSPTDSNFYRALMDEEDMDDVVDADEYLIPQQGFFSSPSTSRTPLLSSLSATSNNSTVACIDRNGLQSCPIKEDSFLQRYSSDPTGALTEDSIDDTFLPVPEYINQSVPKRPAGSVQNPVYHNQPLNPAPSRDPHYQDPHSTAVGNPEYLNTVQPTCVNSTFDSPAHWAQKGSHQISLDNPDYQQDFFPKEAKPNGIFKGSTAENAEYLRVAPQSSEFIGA
Sequence of human EGFR WT (NIH/3T3 cells, EGF-induced) (P00533 25-1210): as above
T1 sequence (P00533 669-1210 T790M/L858R): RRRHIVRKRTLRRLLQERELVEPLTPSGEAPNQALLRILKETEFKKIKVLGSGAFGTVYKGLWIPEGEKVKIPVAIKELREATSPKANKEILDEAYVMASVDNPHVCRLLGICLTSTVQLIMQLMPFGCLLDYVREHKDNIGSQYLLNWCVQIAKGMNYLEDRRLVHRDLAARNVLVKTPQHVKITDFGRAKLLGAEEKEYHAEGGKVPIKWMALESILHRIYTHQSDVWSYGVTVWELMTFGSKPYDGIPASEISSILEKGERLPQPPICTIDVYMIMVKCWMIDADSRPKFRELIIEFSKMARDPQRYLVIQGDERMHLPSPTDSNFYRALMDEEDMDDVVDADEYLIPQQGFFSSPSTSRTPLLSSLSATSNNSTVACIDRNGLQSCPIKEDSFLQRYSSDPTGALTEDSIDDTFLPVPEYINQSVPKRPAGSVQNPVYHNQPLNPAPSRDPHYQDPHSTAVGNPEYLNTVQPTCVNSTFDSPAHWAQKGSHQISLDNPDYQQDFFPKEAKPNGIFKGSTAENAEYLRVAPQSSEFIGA
Sequence of human EGFR L858R/T790M (NIH/3T3 cells) (P00533 25-1210 T790M/L858R): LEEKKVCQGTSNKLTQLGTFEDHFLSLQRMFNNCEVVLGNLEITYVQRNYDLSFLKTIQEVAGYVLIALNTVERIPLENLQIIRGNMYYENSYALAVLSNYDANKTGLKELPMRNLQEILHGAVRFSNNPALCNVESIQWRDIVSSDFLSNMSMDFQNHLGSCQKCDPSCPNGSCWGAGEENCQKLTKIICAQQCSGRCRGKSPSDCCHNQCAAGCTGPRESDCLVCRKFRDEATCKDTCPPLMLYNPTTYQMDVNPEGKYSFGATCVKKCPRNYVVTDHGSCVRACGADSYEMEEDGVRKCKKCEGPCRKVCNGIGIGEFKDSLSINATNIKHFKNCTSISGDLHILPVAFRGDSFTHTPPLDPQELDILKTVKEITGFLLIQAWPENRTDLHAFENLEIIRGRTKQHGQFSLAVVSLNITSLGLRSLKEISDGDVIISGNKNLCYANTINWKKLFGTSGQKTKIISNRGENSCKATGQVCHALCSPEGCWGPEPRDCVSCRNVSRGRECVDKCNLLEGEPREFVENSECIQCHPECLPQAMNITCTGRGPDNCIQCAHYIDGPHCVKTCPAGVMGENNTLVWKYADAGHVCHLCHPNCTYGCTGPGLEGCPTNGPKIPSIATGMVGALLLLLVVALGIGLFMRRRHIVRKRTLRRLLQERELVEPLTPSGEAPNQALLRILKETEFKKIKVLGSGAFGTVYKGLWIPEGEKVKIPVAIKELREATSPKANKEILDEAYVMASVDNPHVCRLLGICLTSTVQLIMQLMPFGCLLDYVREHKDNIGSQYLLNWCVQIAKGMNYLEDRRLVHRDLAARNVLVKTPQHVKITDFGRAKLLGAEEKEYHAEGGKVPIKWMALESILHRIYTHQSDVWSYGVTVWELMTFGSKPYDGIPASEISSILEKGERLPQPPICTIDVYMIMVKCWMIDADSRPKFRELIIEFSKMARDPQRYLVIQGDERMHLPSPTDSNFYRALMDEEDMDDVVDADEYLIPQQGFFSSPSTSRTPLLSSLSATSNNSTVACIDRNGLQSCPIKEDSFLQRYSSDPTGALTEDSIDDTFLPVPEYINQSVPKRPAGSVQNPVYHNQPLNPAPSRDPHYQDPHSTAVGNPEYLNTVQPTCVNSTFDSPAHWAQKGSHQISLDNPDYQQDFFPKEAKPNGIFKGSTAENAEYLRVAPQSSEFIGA

| SMILES | IC50 (EGFR(L858R/T790M); [4]) | IC50 (EGFR(L858R/T790M); [5]) | IC50 [1] | IC50 [2] | IC50 [3] | IC50 (H1975 (EGFR L858/T790M)) | IC50 (H3255 (EGFR L858R)) | IC50 (HEKn (EGFR WT)) |
| --- | --- | --- | --- | --- | --- | --- | --- | --- |
| C=CC(=O)N1CCCC[C@@H](n2c(NC(=O)c3ccccc3)nc3cc(CN4CCCC4)cc(C)c32)C1 [Example 17-111] | < 0.001 µM | 0.004 µM | 0.047 µM | 0.003 µM | 0.001 µM | < 1 nM | 8 nM | 203 nM |
| Cc1cncc(C(=O)Nc2nc3cccc(C)c3n2[C@@H]2CCCCN(C(=O)/C=C/CN(C)C)C2)c1 [Example 17-68] | < 0.001 µM | 0.003 µM | 0.023 µM | 0.002 µM | 0.001 µM | 2 nM | 8 nM | 203 nM |
| Cc1cc(C(=O)Nc2nc3cccc(C)c3n2[C@@H]2CCCCN(C(=O)/C=C/CN(C)C)C2)cnn1 [Example 17-82] | < 0.001 µM | 0.007 µM | 0.187 µM | 0.007 µM | 0.007 µM | 10 nM | 29 nM | 370 nM |
| C=CC(=O)N1CCCC[C@@H](n2c(NC(=O)c3ccnnc3)nc3cccc(Cl)c32)C1 [Example 17-15] | < 0.001 µM | 0.012 µM | 0.204 µM | 0.017 µM | 0.006 µM | 6 nM | 22 nM | 259 nM |
| Cc1cccc2nc(NC(=O)c3ccncn3)n(C3CCCCN(C(=O)/C=C/CN(C)C)C3)c12 (stereo not shown) [Example 17-37] | 0.005 µM | 0.062 µM | 1.65 µM | 0.032 µM | 0.042 µM | 128 nM | 135 nM | > 10000 nM |
| Cc1cccc2nc(NC(=O)c3cccc(-n4cnnn4)c3)n(C3CCCCN(C(=O)/C=C/CN(C)C)C3)c12 (stereo not shown) [Example 17-53] | < 0.001 µM | 0.002 µM | 0.058 µM | 0.003 µM | 0.002 µM | 2 nM | 4 nM | 261 nM |
| Cc1noc(-c2cccc3nc(NC(=O)c4ccccc4)n(C4COCCN(C(=O)/C=C/CN(C)C)C4)c23)n1 (stereo not shown) [Example 17-142] | 0.01 µM | 0.32 µM | 5.2 µM | 0.34 µM | 0.09 µM | 105 nM | 640 nM | > 10000 nM |
| Cc1cccc2nc(NC(=O)c3ccncc3)n(C3CCCCN(C(=O)/C=C/CN(C)C)C3)c12 (stereo not shown) [Example 17-35] | < 0.001 µM | 0.006 µM | 0.14 µM | 0.005 µM | 0.005 µM | 4 nM | 5 nM | 285 nM |
| COc1cc(C(=O)Nc2nc3cccc(C)c3n2[C@@H]2CCCCN(C(=O)/C=C/CN(C)C)C2)ccn1 [Example 17-71] | < 0.001 µM | 0.002 µM | 0.029 µM | 0.002 µM | 0.002 µM | 2 nM | 3 nM | 134 nM |
| C=CC(=O)N1CCC[C@@H](n2c(NC(=O)c3ccnc(C)c3)nc3cccc(C)c32)C1 [Example 17-109] | < 0.001 µM | 0.025 µM | 0.88 µM | 0.032 µM | 0.028 µM | 14 nM | 43 nM | 1680 nM |
| Cc1cccc2nc(NC(=O)c3ccccc3)n(C3CCCCN(C(=O)/C=C/CN(C)C)C3)c12 (stereo not shown) [Example 17-40] | < 0.001 µM | 0.007 µM | 0.49 µM | 0.017 µM | 0.008 µM | 7 nM | 130 nM | 760 nM |
| C=CC(=O)N1CCCC[C@@H](n2c(NC(=O)c3cnnc(C)c3)nc3cccc(C)c32)C1 [Example 17-81] | < 0.001 µM | 0.002 µM | 0.067 µM | 0.003 µM | 0.002 µM | 2 nM | 4 nM | 162 nM |
| C=CC(=O)N1CCCC[C@@H](n2c(NC(=O)c3ccnnc3)nc3cccc(C)c32)C1 [Example 17-94] | < 0.001 µM | 0.002 µM | 0.031 µM | 0.001 µM | < 0.001 µM | 1 nM | 2 nM | 45 nM |
| C=CC(=O)N1CCCC[C@@H](n2c(NC(=O)c3ccccc3)nc3cccc(CN4CCC(O)C4)c32)C1 (stereo partly shown) [Example 17-114] | < 0.001 µM | 0.001 µM | 0.143 µM | 0.002 µM | < 0.001 µM | < 1 nM | 4 nM | 100 nM |
| Cc1cc(C(=O)Nc2nc3cccc(Cl)c3n2[C@@H]2CCCCN(C(=O)/C=C/CN3CCC3)C2)ccn1 [Example 3-12] | 0.011 µM | 0.133 µM | 1.13 µM | 0.05 µM | 0.123 µM | 186 nM | 200 nM | > 10000 nM |
| Cc1cccc2nc(NC(=O)c3cc(F)ccc3F)n(C3CCCCN(C(=O)/C=C/CN(C)C)C3)c12 (stereo not shown) [Example 17-29] | < 0.001 µM | 0.02 µM | 0.82 µM | 0.028 µM | 0.017 µM | 93 nM | 290 nM | 2610 nM |
| Cc1cccc2nc(NC(=O)c3ccc(Cl)nc3)n([C@@H]3CCCCN(C(=O)/C=C/CN(C)C)C3)c12 [Example 17-77] | < 0.001 µM | 0.003 µM | 0.008 µM | 0.001 µM | 0.001 µM | 2 nM | 1 nM | 24 nM |
